Laboratory results published in US11731977B2, “SGC stimulators” (Cyclerion Therapeutics, Inc., priority 2016, dated 2023).
Read-outs that look alike come from different tables or passages of the source.

What was measured:
[1] = system: cGMP in rat primary neurons; experiment: cGMP neuronal cell-based assay (Example 3); details: Primary neuron; rat primary hippocampal neurons; 30 μM DETA-NO; cGMP by LC-MS/MS; 50% of high control (10 μM Compound Y); read-out: Abs EC50
Experimental: Rat primary neurons were isolated from fetuses of 18-day pregnant Sprague-Dawley females. The fetuses were collected in Hanks' balanced salt solution (HBSS) and brains were rapidly removed. The cerebral hippocampi were isolated and mechanically fragmented. Further tissue digestion was performed with 0.25% (wt/vol) trypsin solution in HBSS without Ca2+ and Mg2+ for 15 min at 37° C. After trypsination, cells were washed and resuspended in neurobasal medium supplemented with 0.5 mM L-glutamine, 12.5 uM glutamic acid, 2% B-27 and 100 U/mL penicillin, and 100 μg/mL streptomycin. Cells were plated at a density of 4×10^4 cells/well in a poly-D-lysine coated 384-well flat clear-bottom plate (Corning Cat No 354662). Cells were incubated 6-7 days at 37° C. in a humidified chamber with 5% CO2. Media was removed and cells were washed 1× with HBSS containing Ca2+ and Mg2+, and replaced with 40 uL HBSS containing 0.5 mM IBMX, and incubated for 15 minutes at 37° C. 10 uL of a 5× stock of test compounds with diethylenetriamine NONOate (DETA-NO) was added. Final concentration of DETA-NO was 30 μM. Cells were incubated for 20 min at 37° C. Medium was removed, 50 uL of ice-cold 10% acetic acid was added, and incubated for 60 minutes at 4° C. Following centrifugation at 4° C. for 5 minutes at 1000×g to pellet cell debris, the supernatant was aspirated to a clean plate and the samples were analyzed for cGMP content. cGMP concentrations were determined from each sample using LC-MS/MS.
Data were normalized to a high control using the following equation: 100*(Sample−Low Control)/(High Control−Low Control), where the low control is the average of 15 samples treated with 1% DMSO, and the high control is the average of 15 samples treated with 10 μM a known sGC stimulator Compound Y. Data were fit using a 4-parameter fit (log(agonist) vs. response—variable slope) using GraphPad Prism Software v.5. n=2 for all compounds. The Absolute EC50 was interpolated from the curve fit and is defined as the concentration at which a given compound elicits 50% of the high control response. Compounds failing to elicit a minimum response of 50% are reported as >30 μM. For compounds run in duplicate or n higher than 2, the result herein given is the geometric mean of the several results obtained.

[2] = Rat cerebrospinal fluid (CSF) pharmacokinetic properties (Example 4); format: in vivo; details: male, Sprague-Dawley
Experimental: Protocol PK in rats was determined following oral dosing. For the oral (PO) experiments, a group of 6 male Sprague-Dawley rats with an indwelling catheter placed in the cistema magna were used. The PO group was dosed with 10 mg/kg or 1 mg/kg of a compound formulated as a solution in PEG400. PO doses were administered by oral gavage and delivered to the stomach using a syringe and gavage tube. Following oral dosage administration, the gavage tube was flushed with approximately 0.5 mL of water to ensure complete delivery of the full dose.
Plasma samples were collected as follows: samples of CSF and blood were collected at 1 hour, 2, and optionally at 4 hours post-dosing. CSF samples (0.05 mL) were collected through the intracisternal catheter. Blood samples (0.25 mL) were collected through retro-orbital sampling. These samples were kept on ice until processed for plasma. Blood samples were centrifuged at 3200 rpm for 5 minutes at approximately 5° C. within 1 hour of collection. Plasma was directly transferred to a 96-well plate tube (0.125 mL). Plug caps were placed on the tubes and the tubes frozen at approximately −70° C. and stored until analysis. Plasma was collected and analyzed for the presence of a compound.
Quantitation of Compounds. The compound in question and the internal standard were extracted from plasma and CSF by precipitation. Samples were analyzed using liquid chromatography (LC) with tandem mass spectrometric detection (MS/MS) using electrospray ionization. The standard curve range was from 1 to 1000 ng/mL. Results of the compounds described herein in this assay are illustrated in Table 4a below (10 mg/kg dose) and Tables 4b and 4c below (1 mg/kg).
Kp,uu is defined as the concentration ratio of unbound drug in CSF to unbound drug in plasma. Unbound drug in plasma (or free plasma concentration) is calculated by multiplying the total plasma concentration by the unbound fraction as determined by plasma protein binding. The CSF concentration is then divided by the free plasma concentration to determine the Kp,uu. (See e.g., Di et al., J. Med. Chem., 56, 2-12 (2013))

[3] = 10 mg/kg PO, 1 h, unbound CSF/unbound plasma, read-out: Kp,uu (@ 1 h)
[4] = CSF, 10 mg/kg PO, 1 h, read-out: CSF Conc. (nM @ 1 h)

SMILES	EC50 [1] [nM]	Kp uu at 1 h [2, 3]	Kp uu at 1 h ([2]; CSF / unbound plasma, 1 mg/kg PO, @ 1 h, read-out: Kp,uu)	Kp uu at 2 h ([2]; CSF / unbound plasma, 1 mg/kg PO, @ 2 h)	Kp uu at 4 h ([2]; CSF / unbound plasma, 1 mg/kg PO, @ 4 h)	concentration at 1 h ([2]; CSF, 1 mg/kg PO, @ 1 h, read-out: CSF Conc.) [nM]	concentration at 2 h ([2]; CSF, 1 mg/kg PO, @ 2 h, read-out: CSF Conc.) [nM]	concentration at 4 h ([2]; CSF, 1 mg/kg PO, @ 4 h, read-out: CSF Conc.) [nM]	concentration at 1 h [2, 4] [nM]
Fc1ccccc1Cc1nc(-c2nc(C(F)(F)F)n[nH]2)cn2ccnc12 [Compound I-1, 8-(2-fluorobenzyl)-6-(3-(trifluoromethyl)-1H-1,2,4-triazol-5-yl)imidazo[1,2-a]pyrazine]	≤ 100	0.9	1	1.4	1.9	21	35	39	210
Fc1cccc(Cc2nc(-c3nc(C(F)(F)F)n[nH]3)cn3ccnc23)c1 [Compound I-2, 8-(3-Fluorobenzyl)-6-(3-(trifluoromethyl)-1H-1,2,4-triazol-5-yl)imidazo[1,2-a]pyrazine]	≤ 100	0.9	–	–	–	–	–	–	59
Fc1cccc(Cc2nc(-c3nc(C(F)F)n[nH]3)cn3ccnc23)c1 [Compound I-3, 6-(3-(Difluoromethyl)-1H-1,2,4-triazol-5-yl)-8-(3-fluorobenzyl)imidazo[1,2-a]pyrazine]	≤ 100	0.8	–	–	–	–	–	–	6
Fc1cccc(Cc2nc(-c3nc(C(F)F)n[nH]3)cn3ccnc23)c1F [Compound I-11, 8-(2,3-Difluorobenzyl)-6-(3-(difluoromethyl)-1H-1,2,4-triazol-5-yl)imidazo[1,2-a]pyrazine]	≤ 100	2.1	–	–	–	–	–	–	72

Other lines, results leading:

EC50 [1] [nM]	Kp uu at 1 h [2, 3]	Kp uu at 1 h ([2]; CSF / unbound plasma, 1 mg/kg PO, @ 1 h, read-out: Kp,uu)	Kp uu at 2 h ([2]; CSF / unbound plasma, 1 mg/kg PO, @ 2 h)	Kp uu at 4 h ([2]; CSF / unbound plasma, 1 mg/kg PO, @ 4 h)	concentration at 1 h ([2]; CSF, 1 mg/kg PO, @ 1 h, read-out: CSF Conc.) [nM]	concentration at 2 h ([2]; CSF, 1 mg/kg PO, @ 2 h, read-out: CSF Conc.) [nM]	concentration at 4 h ([2]; CSF, 1 mg/kg PO, @ 4 h, read-out: CSF Conc.) [nM]	concentration at 1 h [2, 4] [nM]	SMILES
≤ 100	3.1	–	–	–	–	–	–	108	Fc1cccc(Cc2nc(-c3nc(C(F)(F)F)n[nH]3)cn3ccnc23)c1F [Compound I-10, 8-(2,3-Difluorobenzyl)-6-(3-(trifluoromethyl)-1H-1,2,4-triazol-5-yl)imidazo[1,2-a]pyrazine]
≤ 100	1.7	–	–	–	–	–	–	284	Fc1ccccc1Cc1nc(-c2nc(C(F)F)n[nH]2)cn2ccnc12 [Compound I-14, 8-(2-Fluorobenzyl)-6-(3-(difluoromethyl)-1H-1,2,4-triazol-5-yl)imidazo[1,2-a]pyrazine]
≤ 100	1.6	–	–	–	–	–	–	272	Fc1ccccc1Cc1nc(-c2nc(C(F)(F)F)n[nH]2)cn2ncnc12 [Compound I-16, 8-(2-Fluorobenzyl)-6-(3-(trifluoromethyl)-1H-1,2,4-triazol-5-yl)-[1,2,4]triazolo[1,5-a]pyrazine]
